From patent US20190022165A1, “METHODS AND COMPOSITIONS FOR THE TREATMENT AND PREVENTION OF PULMONARY ARTERIAL HYPERTENSION” (STEALTH BIOTHERAPEUTICS CORP, priority 2016, published 2019)

How the values were obtained:
[1] = test system: several mammalian cell types; conditions: cited from earlier work
[2] = test system: heart failure subjects with reduced ejection fraction (HFrEF≤35%); assay: Single ascending dose trial, 2-D echocardiography: right ventricular systolic pressure (RVSP); assay type: in vivo, human
Method: (§1) A single-center, randomized, double-blind, placebo-controlled, single ascending dose trial of D-Arg-2′6′-Dmt-Lys-Phe-NH2 was performed in heart failure subjects aged 45-80 years (n=36) with reduced ejection fraction (HFrEF≤35%). Three sequential dose-escalation cohorts were enrolled and administered a single intravenous (IV) dose of D-Arg-2′6′-Dmt-Lys-Phe-NH2 by a 4-hour infusion. In each cohort, 8 subjects were randomly assigned to receive D-Arg-2′6′-Dmt-Lys-Phe-NH2 (active group) and 4 to receive placebo (placebo group infused with 0.9% saline solution in the same manner as the D-Arg-2′6′-Dmt-Lys-Phe-NH2 active group). Eligible subjects were admitted to the research unit on Day 1, were randomized and received the study drug infusion on Day 2 and were discharged on Day 3. Subjects returned to the research unit on Day 7 (+3) for follow-up. The dose levels of D-Arg-2′6′-Dmt-Lys-Phe-NH2 in Cohorts 1, 2, and 3 were 0.005, 0.05, and 0.25 mg/kg/hour, respectively.
(§2) A single dose of the aromatic-cationic peptide, D-Arg-2′6′-Dmt-Lys-Phe-NH2, was administered intravenously (IV) at 0.005 mg/kg/hour (Cohort 1; low dose), 0.05 mg/kg/hour (Cohort 2; intermediate dose), and 0.25 mg/kg/hour (Cohort 3; high dose) over 4 hours at 60 mL/hour.
(§3) Echocardiograms (2-D) were performed on Day 2 at pre-dose (0-hr), mid-dose (2-hr), end-dose (4-hr), and 6 hours, 8 hours, 12 hours after infusion initiation, and at Day 3 at 24 hours after infusion initiation in every subject. Primary echo endpoints included end-diastolic volume (EDV) and EDV index, and end-systolic volume (ESV) and ESV index. Secondary echo endpoints included left atrial (LA) volume, right ventricular fractional area change (RV FAC), and right ventricular systolic pressure (RVSP). Exploratory echo endpoints included global longitudinal strain.
(§4) All statistical analyses, summary tables and data listings were prepared using SAS software Version 9.2 or higher. Overall differences in pharmacokinetic parameters of systemic exposure (e.g., Cmax and AUC) across the 3 different dosing regimens were evaluated by ANOVA. In general, significance was determined at the p<0.05 level. For continuous variables, descriptive statistics (sample size, mean, standard deviation, median, minimum, and maximum values) were determined. For discrete variables, frequency distributions were generated.

[3] = test system: heart failure subjects with reduced ejection fraction (HFrEF≤35%); assay: Single ascending dose trial, 2-D echocardiography: right ventricular fractional area change (RV FAC); assay type: in vivo, human; conditions: for RV FAC Δ from baseline, Mean Active Group with 95% CI: Cohort 3, 0.25 mg/kg/hour IV 4-hour infusion
Method: as §1, §2, §3, §4

[4] = Cohort 3, 0.25 mg/kg/hour, 6 Hours
[5] = Cohort 3, 0.25 mg/kg/hour, 8 Hours
[6] = Cohort 3, 0.25 mg/kg/hour, 12 Hours
[7] = Cohort 3, 0.25 mg/kg/hour, 24 Hours
[8] = Cohort 3, 0.25 mg/kg/hour, End-Dose
[9] = Cohort 3, 0.25 mg/kg/hour, Mid-Dose

2′,6′-Dmt-D-Arg-Phe-Lys-NH2
penetration of the plasma membrane [1]: readily penetrates the plasma membrane of several mammalian cell types in an energy-independent manner

D-Arg-2′6′-Dmt-Lys-Phe-NH2
RVSP Δ from baseline, Mean Active Group ([2]; Cohort 2, 0.05 mg/kg/hour IV 4-hour infusion, 6 Hours): −4.8 mmHg | RVSP Δ from baseline, Mean Active Group ([2]; Cohort 2, 0.05 mg/kg/hour IV 4-hour infusion, 8 Hours): −6.5 mmHg | RVSP Δ from baseline, Mean Active Group ([2]; Cohort 2, 0.05 mg/kg/hour IV 4-hour infusion, 12 Hours): −5.6 mmHg | RVSP Δ from baseline, Mean Active Group ([2]; Cohort 2, 0.05 mg/kg/hour IV 4-hour infusion, 24 Hours): −5.3 mmHg | RVSP Δ from baseline, Mean Active Group ([2]; Cohort 2, 0.05 mg/kg/hour IV 4-hour infusion, End-Dose): −9.9 mmHg | RVSP Δ from baseline, Mean Active Group ([2]; Cohort 2, 0.05 mg/kg/hour IV 4-hour infusion, Mid-Dose): −8.5 mmHg | RVSP Δ from baseline, Mean Difference (active vs pooled placebo) ([2]; Cohort 2, 0.05 mg/kg/hour, 6 Hours): −4.4 mmHg | RVSP Δ from baseline, Mean Difference (active vs pooled placebo) ([2]; Cohort 2, 0.05 mg/kg/hour, 8 Hours): −4.4 mmHg | RVSP Δ from baseline, Mean Difference (active vs pooled placebo) ([2]; Cohort 2, 0.05 mg/kg/hour, 12 Hours): −9.7 mmHg | RVSP Δ from baseline, Mean Difference (active vs pooled placebo) ([2]; Cohort 2, 0.05 mg/kg/hour, 24 Hours): −5.0 mmHg | RVSP Δ from baseline, Mean Difference (active vs pooled placebo) ([2]; Cohort 2, 0.05 mg/kg/hour, End-Dose): −19.1 mmHg | RVSP Δ from baseline, Mean Difference (active vs pooled placebo) ([2]; Cohort 2, 0.05 mg/kg/hour, Mid-Dose): −8.2 mmHg | pulmonary pressures (RVSP) relative to baseline, in words ([2]; Cohort 2, 0.05 mg/kg/hour, at end dose): significant decrease in pulmonary pressures (RVSP) | RVSP Δ from baseline, Mean Active Group ([2]; Cohort 3, 0.25 mg/kg/hour IV 4-hour infusion, 6 Hours): −11.7 mmHg | RVSP Δ from baseline, Mean Active Group ([2]; Cohort 3, 0.25 mg/kg/hour IV 4-hour infusion, 8 Hours): −1.3 mmHg | RVSP Δ from baseline, Mean Active Group ([2]; Cohort 3, 0.25 mg/kg/hour IV 4-hour infusion, 12 Hours): 2.6 mmHg | RVSP Δ from baseline, Mean Active Group ([2]; Cohort 3, 0.25 mg/kg/hour IV 4-hour infusion, 24 Hours): −1.6 mmHg | RVSP Δ from baseline, Mean Active Group ([2]; Cohort 3, 0.25 mg/kg/hour IV 4-hour infusion, End-Dose): −1.2 mmHg | RVSP Δ from baseline, Mean Active Group ([2]; Cohort 3, 0.25 mg/kg/hour IV 4-hour infusion, Mid-Dose): 0.9 mmHg | RVSP Δ from baseline, Mean Difference (active vs pooled placebo) [2, 4]: −11.3 mmHg | RVSP Δ from baseline, Mean Difference (active vs pooled placebo) [2, 5]: 0.9 mmHg | RVSP Δ from baseline, Mean Difference (active vs pooled placebo) [2, 6]: −1.5 mmHg | RVSP Δ from baseline, Mean Difference (active vs pooled placebo) [2, 7]: −1.3 mmHg | RVSP Δ from baseline, Mean Difference (active vs pooled placebo) [2, 8]: −10.3 mmHg | RVSP Δ from baseline, Mean Difference (active vs pooled placebo) [2, 9]: 1.1 mmHg | right ventricular fractional area change (RV FAC), in words ([3]; Cohort 3, 0.25 mg/kg/hour): overall improvement in right ventricular fractional area change (RV FAC) | RV FAC Δ from baseline, Mean Active Group with 95% CI ([3]; 6 Hours): 2.6 (−0.7, 5.9) % | RV FAC Δ from baseline, Mean Active Group with 95% CI ([3]; 8 Hours): 3.4 (−0.7, 7.5) % | RV FAC Δ from baseline, Mean Active Group with 95% CI ([3]; 12 Hours): 1.7 (−4.0, 7.4) % | RV FAC Δ from baseline, Mean Active Group with 95% CI ([3]; 24 Hours): 2.5 (−2.0, 7.0) % | RV FAC Δ from baseline, Mean Active Group with 95% CI ([3]; End-Dose): 0.3 (−4.8, 5.5) % | RV FAC Δ from baseline, Mean Active Group with 95% CI ([3]; Mid-Dose): 1.6 (−2.6, 5.8) % | RV FAC Δ from baseline, Mean Difference (active vs pooled placebo) [3, 4]: 3.8% | RV FAC Δ from baseline, Mean Difference (active vs pooled placebo) [3, 5]: 4.6% | RV FAC Δ from baseline, Mean Difference (active vs pooled placebo) [3, 6]: 8.9% | RV FAC Δ from baseline, Mean Difference (active vs pooled placebo) [3, 7]: 3.8% | RV FAC Δ from baseline, Mean Difference (active vs pooled placebo) [3, 8]: 0.3% | RV FAC Δ from baseline, Mean Difference (active vs pooled placebo) [3, 9]: 3.8%
